How the values were obtained:
[1] = tested on: organotypic epithelial raft cultures of the PHKs; test: Histological examination of cell differentiation in raft cultures; details: highest tested concentration 50 µg/ml
Protocol: Primary human keratinocytes (PHKs) were seeded on top of collagen gels in 24-well microtiter plates and maintained submerged for 24–48 h. The collagen rafts were then raised and placed into stainless-steel grids at the interface between air and the liquid culture medium. The epithelial cells were allowed to stratify. Rafts were infected with 5,000 PFU of HSV-1KOS or HSV-2G at 10 days post lifting and treated with adefovir or PMEO-DAPym. Five days later, one series of rafts was fixed in 10% buffered formalin, embedded in paraffin, and stained with hematoxylin and eosin for histological evaluation.

[2] = tested on: PBMC; test: Chemokine mRNA expression (RT-PCR) in PBMC; assay type: cell-based, human; details: 100 µg/ml, 4 h
Protocol: Figure 9 Expression of CC-chemokines, CCR5 and chemokine mRNA expression in PBMC cultures after drug treatment. Panel A: Production of CC-chemokines by PBMC and the effects of adefovir, tenofovir, and PMEO-DAPym on the expression of the CCR5 receptor. Freshly isolated PBMCs from four healthy donors were incubated for 24 h with medium only (NC) or with adefovir, tenofovir, or PMEO-DAPym. We collected the supernatants and measured the concentrations of MIP-1α (▪), MIP-1β (▴), and RANTES (•) using a Bioplex system (Bio-Rad, Hercules, CA). Shown are means ± SEM. The cells were also collected, and the expression of the CCR5 receptor (□) was measured with flow cytometry using the PE-labeled CCR5 (clone 2D7) mAb; it is shown as percentage of control (± SEM) from four independent representative experiments. Panel B: Chemokine mRNA expression upon PMEO-DAPym exposure to PBMC. RT-PCR analysis of MIP-1α, MIP-1β, RANTES, and GAPDH (control) expression in PBMC treated with 100-µg/ml PMEO-DAPym for 4 h. Similar results were obtained with PBMC from three different donors. Results from one representative donor are shown.
We isolated total RNA from approximately 10^6 PBMC using the RNeasy Mini Kit (QIAGEN, Hilden, Germany). To eliminate potential genomic DNA contamination, the samples were treated with DNase I (Roche). […]

[3] = tested on: PBMC; test: PBMC viability (trypan blue dye exclusion, flow cytometry); assay type: cell-based, human; details: 20, 100 and 500 µg/ml
[4] = tested on: CXCR4 or CXCR3; test: Flow cytometry of CXCR4 and CXCR3 expression on PBMC; assay type: cell-based, human; details: data not shown
Protocol: PBMC were cultured in the presence of adefovir, tenofovir, and PMEO-DAPym and incubated at 37°C in a humidified, 5% CO2-controlled atmosphere. The expression of cellular activation markers was measured after 3 days of culture. Briefly, after washing the cells with PBS containing 2% FCS, we incubated them with PerCP-conjugated anti-CD4 mAb (clone SK3) in combination with PE-conjugated anti-CD25, anti-CD69, or anti-HLA-DR mAbs for 30 min at room temperature. For aspecific background staining, cells were stained in parallel with Simultest Control IgG γ1/γ2a and PerCP-conjugated mouse IgG1. Finally, the cells were washed with PBS, fixed with 1% formaldehyde solution, and analyzed with a FACSCalibur (BD Biosciences, San Jose, CA); data were acquired with CellQuest software and further analyzed with the FLOWJO software (Tree Star, San Carlos, CA). The expression of the chemokine receptors was measured after 24 h, and PBMC were incubated with PerCP-conjugated anti-CD4 mAb (clone SK3) in combination with APC-conjugated anti-CXCR4 mAb (clone 12G5) and PE-conjugated anti-CCR5 (clone 2D7) or anti-CXCR3 (clone 1C6). To evaluate the biological effects of the β-chemokines produced by drug-treated PBMC, freshly isolated PBMC were incubated for 1 h at 37°C with supernatants collected from PBMC cultures treated with compounds for 24 h. […]

[5] = tested on: PBMC; test: Flow cytometry of activation markers on PBMC; assay type: cell-based, human; details: 72 h exposure
Protocol: Figure 10 Expression of activation markers on PBMCs treated with adefovir, tenofovir, or PMEO-DAPym. PBMCs were incubated with adefovir, tenofovir, or PMEO-DAPym for 3 days. The mitogenic lectin PHA (at 2 µg/ml) was included as a positive control. We measured cell surface expression of CD4 and the activation markers CD69 (top panel), CD25 (middle panel), and HLA-DR (bottom panel) using flow cytometry with the […] CD4-specific mAb (clone SK3) and the phycoerythrin-labeled CD69, CD25, HLA-DR-specific mAbs. Shown are means ± SEM from two independent experiments.
PBMC were cultured in the presence of adefovir, tenofovir, and PMEO-DAPym and incubated at 37°C in a humidified, 5% CO2-controlled atmosphere. The expression of cellular activation markers was measured after 3 days of culture. […] Finally, the cells were washed with PBS, fixed with 1% formaldehyde solution, and analyzed with a FACSCalibur (BD Biosciences, San Jose, CA); data were acquired with CellQuest software and further analyzed with the FLOWJO software (Tree Star, San Carlos, CA). The expression of the chemokine receptors was measured after 24 h, and PBMC were incubated with PerCP-conjugated anti-CD4 mAb (clone SK3) in combination with APC-conjugated anti-CXCR4 mAb (clone 12G5) and PE-conjugated anti-CCR5 (clone 2D7) or anti-CXCR3 (clone 1C6). […]

[6] = tested on: M/M cultures; test: Viability of M/M cultures; assay type: cell-based, human; details: 100 µg/ml
Protocol: Monocyte/macrophage (M/M) lineage cells can be infected by HSV-2 and HIV-1. M/M reside in genital herpes lesions and are thought to be reservoirs of HIV [6], [23]. […] Lower concentrations were dose-dependently inhibitory, with EC50 values ranging between 0.02 and 0.2 µg/ml (Table 1, Table 3).

[7] = tested on: HSV; design: method as in PMID 20643915, PMID 20709216; details: CAPRISA trial; cited from earlier work
[8] = tested on: HSV-1 and HSV-2; test: Organotypic epithelial raft cultures of PHKs, virus production; assay type: cell-based; details: HSV-1 and HSV-2, 20 µg/ml
Protocol: Figure 3 Inhibitory activities of tenofovir, adefovir, and PMEO-DAPym against laboratory HSV-1 and HSV-2 strains in organotypic epithelial raft cultures. Panels A (HSV-1) and B (HSV-2): Drugs at different concentrations were added to the raft cell cultures on the day of infection (10 days after initiation of differentiation). The drugs remained in the presence of the cells for 5 days until the rafts were frozen for determination of virus production with a plaque assay in HEL cell cultures. Error bars represent S.D.
The epithelial cells were allowed to stratify. […] Virus production per raft was then calculated.

SMILES | effect on cell differentiation (histological examination) [1] | increase in MIP-1β and MIP-1α mRNA expression [2] | PBMC viability [3] | downregulation of CXCR4 or CXCR3 [4] | upregulation of cell activation markers (HLA-DR, CD25, CD69 and others) [5] | effect on the viability of M/M cultures [6] | prevention of HSV infection [7] | reduction of herpesvirus replication [8]
Nc1cc(OCCOCP(=O)(O)O)nc(N)n1 [PMEO-DAPym, 6-phosphonylmethoxyethoxy-2,4-diaminopyrimidine] | no effect on cell differentiation | > 9 fold | did not affect PBMC viability | No downregulation | none of the cell activation markers | No effect on the viability |  | 
C[C@H](Cn1cnc2c(N)ncnc21)OCP(=O)(O)O [Tenofovir, 9-(2-phosphonylmethoxypropyl)adenine] |  |  |  |  |  |  | 51% | < 0.5 log10

Source: publication PMC3723632, “A Multi-targeted Drug Candidate with Dual Anti-HIV and Anti-HSV Activity” (PLoS Pathogens, 2013)
